From PubChem BioAssay AID2060894 (Molecular Pharmacology Branch, DTP, NCI, 2025)

Tested on: K12877-001-R-J1-PDC complex spheroid viability
Assay: Anticancer human tumor K12877-001-R-J1-PDC patient-derived lung adenocarcinoma cell line growth inhibition [RAS]
Details: for IC50: curve of first compound; for viability, T/C: stronger effect = lower value
Summary of the method: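 Agents were tested in combination matrices in half-log decrements from a top concentration at or near clinical Cmax (10 microM if undetermined). Targets were multi-cell spheroids of tumour lines plus HUVEC and MSC stromal cells.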

[1] = second compound 0.000949 µM, first compound 0.0316 µM
[2] = second compound 0.000949 µM, first compound 0.1 µM
[3] = second compound 0.000949 µM, first compound 0.316 µM
[4] = second compound 0.000949 µM, first compound 1 µM
[5] = second compound 0.003 µM, first compound 0.0316 µM
[6] = second compound 0.003 µM, first compound 0.1 µM
[7] = second compound 0.003 µM, first compound 0.316 µM
[8] = second compound 0.003 µM, first compound 1 µM
[9] = second compound 0.00949 µM, first compound 0.0316 µM
[10] = second compound 0.00949 µM, first compound 0.1 µM
[11] = second compound 0.00949 µM, first compound 0.316 µM
[12] = second compound 0.00949 µM, first compound 1 µM
[13] = second compound 0.03 µM, first compound 0.0316 µM
[14] = second compound 0.03 µM, first compound 0.1 µM
[15] = second compound 0.03 µM, first compound 0.316 µM
[16] = second compound 0.03 µM, first compound 1 µM
[17] = second compound 0.0949 µM, first compound 0.0316 µM
[18] = second compound 0.0949 µM, first compound 0.1 µM
[19] = second compound 0.0949 µM, first compound 0.316 µM
[20] = second compound 0.0949 µM, first compound 1 µM
[21] = second compound 0.3 µM, first compound 0.0316 µM
[22] = second compound 0.3 µM, first compound 0.1 µM
[23] = second compound 0.3 µM, first compound 0.316 µM
[24] = second compound 0.3 µM, first compound 1 µM
[25] = second compound 0.000949 µM, first compound 3.16 µM
[26] = second compound 0.000949 µM, first compound 10 µM
[27] = second compound 0.003 µM, first compound 3.16 µM
[28] = second compound 0.003 µM, first compound 10 µM
[29] = second compound 0.00949 µM, first compound 3.16 µM
[30] = second compound 0.00949 µM, first compound 10 µM
[31] = second compound 0.03 µM, first compound 3.16 µM
[32] = second compound 0.03 µM, first compound 10 µM
[33] = second compound 0.0949 µM, first compound 3.16 µM
[34] = second compound 0.0949 µM, first compound 10 µM
[35] = second compound 0.3 µM, first compound 3.16 µM
[36] = second compound 0.3 µM, first compound 10 µM
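Also: spheroids exposed to agents for one week before readout.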
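For viability, T/C in this document: tumour cells co-cultured with HUVEC and mesenchymal stem cells in spheroids.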

With `CCN1CCN(Cc2ccc(Nc3ncc(F)c(-c4cc(F)c5nc(C)n(C(C)C)c5c4)n3)nc2)CC1` + CCn1c(-c2cccnc2C(C)OC)c2c3cc(ccc31)N1CCOC(CC(NC(=O)C(C(C)C)N(C)C(=O)C3(F)CCN(C(=O)C#CC(C)(C)N(C)C)CC3)C(=O)N3CCCC(N3)C(=O)OCC(C)(C)C2)C1 the IC50 (second compound 0.000949 µM) was 0.286 µM, the IC50 (second compound 0.003 µM) was 0.229 µM and the IC50 (second compound 0.00949 µM) was 0.154 µM. It also gave an IC50 (second compound 0.03 µM) of 0.146 µM, an IC50 (second compound 0.0949 µM) of 0.132 µM and an IC50 (second compound 0.3 µM) of 0.16 µM. The viability, T/C (second compound 0.000949 µM, first compound 0.00316 µM) was 73.5%, the viability, T/C (second compound 0.000949 µM, first compound 0.01 µM) was 80.4% and the viability, T/C [1] was 74.3%. It also gave a viability, T/C [2] of 61.5%, a viability, T/C [3] of 50.1% and a viability, T/C [4] of 31.5%. It also gave a viability, T/C (second compound 0.003 µM, first compound 0.00316 µM) of 71.8%, a viability, T/C (second compound 0.003 µM, first compound 0.01 µM) of 76.9% and a viability, T/C [5] of 68.8%. The viability, T/C [6] was 69.9%, the viability, T/C [7] was 42.3% and the viability, T/C [8] was 28.9%. For the same compound, the viability, T/C (second compound 0.00949 µM, first compound 0.00316 µM) was 66%, the viability, T/C (second compound 0.00949 µM, first compound 0.01 µM) was 77.1% and the viability, T/C [9] was 66.5%. It also gave a viability, T/C [10] of 56.8%, a viability, T/C [11] of 39.2% and a viability, T/C [12] of 34%. The viability, T/C (second compound 0.03 µM, first compound 0.00316 µM) was 74.2%, the viability, T/C (second compound 0.03 µM, first compound 0.01 µM) was 76.5% and the viability, T/C [13] was 69.6%. The viability, T/C [14] was 51.8%, the viability, T/C [15] was 45.4% and the viability, T/C [16] was 36.3%. For the same compound, the viability, T/C (second compound 0.0949 µM, first compound 0.00316 µM) was 76.8%, the viability, T/C (second compound 0.0949 µM, first compound 0.01 µM) was 65.5% and the viability, T/C [17] was 58.5%. It also gave a viability, T/C [18] of 61.6%, a viability, T/C [19] of 36.4% and a viability, T/C [20] of 25.4%. For the same compound, the viability, T/C (second compound 0.3 µM, first compound 0.00316 µM) was 67.2%, the viability, T/C (second compound 0.3 µM, first compound 0.01 µM) was 59.1% and the viability, T/C [21] was 59.3%. For the same compound, the viability, T/C [22] was 58%, the viability, T/C [23] was 39.3% and the viability, T/C [24] was 27.4%.
In the case of `C[C@@H](NC(=O)c1ncnc(N)c1Cl)c1ncc(C(=O)Nc2cc(C(F)(F)F)c(Cl)cn2)s1` + CCn1c(-c2cccnc2C(C)OC)c2c3cc(ccc31)N1CCOC(CC(NC(=O)C(C(C)C)N(C)C(=O)C3(F)CCN(C(=O)C#CC(C)(C)N(C)C)CC3)C(=O)N3CCCC(N3)C(=O)OCC(C)(C)C2)C1, the IC50 (second compound 0.000949 µM) is reported as > 10 µM, the IC50 (second compound 0.003 µM) is reported as > 10 µM and the IC50 (second compound 0.00949 µM) is reported as > 10 µM. For the same compound, the IC50 (second compound 0.03 µM) was > 10 µM, the IC50 (second compound 0.0949 µM) was > 10 µM and the IC50 (second compound 0.3 µM) was > 10 µM. It also gave a viability, T/C [1] of 84.5%, a viability, T/C [2] of 84.7% and a viability, T/C [3] of 77.3%. It also gave a viability, T/C [4] of 85.3%, a viability, T/C [25] of 74.4% and a viability, T/C [26] of 82.7%. It also gave a viability, T/C [5] of 80.2%, a viability, T/C [6] of 79.2% and a viability, T/C [7] of 72.6%. It also gave a viability, T/C [8] of 82%, a viability, T/C [27] of 91.2% and a viability, T/C [28] of 76.8%. For the same compound, the viability, T/C [9] was 84.3%, the viability, T/C [10] was 74.9% and the viability, T/C [11] was 72%. It also gave a viability, T/C [12] of 73.4%, a viability, T/C [29] of 81.3% and a viability, T/C [30] of 78.8%. For the same compound, the viability, T/C [13] was 80.3%, the viability, T/C [14] was 81.1% and the viability, T/C [15] was 71.3%. The viability, T/C [16] was 88.2%, the viability, T/C [31] was 89.9% and the viability, T/C [32] was 87.5%. The viability, T/C [17] was 79.5%, the viability, T/C [18] was 77.8% and the viability, T/C [19] was 78.4%. The viability, T/C [20] was 75.3%, the viability, T/C [33] was 89.7% and the viability, T/C [34] was 72%. For the same compound, the viability, T/C [21] was 72%, the viability, T/C [22] was 71.7% and the viability, T/C [23] was 64.3%. The viability, T/C [24] was 69.8%, the viability, T/C [35] was 69.3% and the viability, T/C [36] was 52.9%.
Compound `Cc1nc(N2CCC3(CC2)COC(C)C3N)c(CO)nc1Sc1ccnc(N)c1Cl` (stereo unspecified) + CCn1c(-c2cccnc2C(C)OC)c2c3cc(ccc31)N1CCOC(CC(NC(=O)C(C(C)C)N(C)C(=O)C3(F)CCN(C(=O)C#CC(C)(C)N(C)C)CC3)C(=O)N3CCCC(N3)C(=O)OCC(C)(C)C2)C1 has an IC50 (second compound 0.000949 µM) of 6.23 µM, an IC50 (second compound 0.003 µM) of 1.85 µM and an IC50 (second compound 0.00949 µM) of 2.63 µM. It also gave an IC50 (second compound 0.03 µM) of 0.875 µM, an IC50 (second compound 0.0949 µM) of 1.2 µM and an IC50 (second compound 0.3 µM) of 0.424 µM. The viability, T/C [1] was 83.6%, the viability, T/C [2] was 71.1% and the viability, T/C [3] was 71.5%. The viability, T/C [4] was 62.5%, the viability, T/C [25] was 52.8% and the viability, T/C [26] was 47.3%. For the same compound, the viability, T/C [5] was 73.6%, the viability, T/C [6] was 66.2% and the viability, T/C [7] was 69.8%. For the same compound, the viability, T/C [8] was 55.6%, the viability, T/C [27] was 45.6% and the viability, T/C [28] was 44%. It also gave a viability, T/C [9] of 76.4%, a viability, T/C [10] of 76% and a viability, T/C [11] of 57.8%. For the same compound, the viability, T/C [12] was 57.4%, the viability, T/C [29] was 50.2% and the viability, T/C [30] was 42.1%. The viability, T/C [13] was 83.2%, the viability, T/C [14] was 73.5% and the viability, T/C [15] was 59.2%. It also gave a viability, T/C [16] of 49.4%, a viability, T/C [31] of 40.7% and a viability, T/C [32] of 36.5%. It also gave a viability, T/C [17] of 72.6%, a viability, T/C [18] of 70.8% and a viability, T/C [19] of 58.3%. It also gave a viability, T/C [20] of 48.5%, a viability, T/C [33] of 46.4% and a viability, T/C [34] of 33.8%. The viability, T/C [21] was 57.1%, the viability, T/C [22] was 67.9% and the viability, T/C [23] was 53.3%. It also gave a viability, T/C [24] of 38.3%, a viability, T/C [35] of 37.5% and a viability, T/C [36] of 31.2%.
